Measured values: patent US20160178584A1, “METHODS FOR DIAGNOSING AND ASSESSING KIDNEY DISEASE” (THE REGENTS OF THE UNIVERSITY OF CALIFORNIA, priority 2010, published 2016)

Experiments:
[1] = tested on: patients with advanced and treatment-refractory focal segmental sclerosis; conditions: cited from earlier work
db/db mice = conditions: cited from earlier work
[2] = tested on: subjects with diabetic nephropathy; experiment: Randomized double-blind, placebo-controlled exploratory trial of pirfenidone: eGFR change (primary endpoint); format: in vivo, human; conditions: for eGFR Change, with imputation: 54 weeks, completers plus subjects who began dialysis, end-of-study eGFR imputed as 10 ml/min per 1.73 m2; for eGFR Change: over 54 weeks, 52 study completers, mean ± SD
Description: Pirfenidone is an orally-available anti-fibrotic agent that has shown efficacy in animal models of diabetic nephropathy and human focal segmental glomerulosclerosis. A randomized double-blind, placebo-controlled exploratory trial of pirfenidone was performed in subjects with diabetic nephropathy with elevated albuminura and reduced glomerular filtration rate (eGFR) (20-75 ml/min per 1.73 m^2). The pre-specified primary outcome was eGFR change after one year of therapy. 78 subjects were randomly allocated to placebo (n=27), pirfenidone 1200 mg/d (n=26), or pirfenidone 2400 mg/d (n=25). 52 subjects completed the study. During the course of the study, eGFR increased with pirfenidone 1200 mg/d [+3.3±8.5 ml/min per 1.73 m^2 (mean±SD)], whereas eGFR fell with placebo (−2.2±4.8 ml/min per 1.73 m^2, p<0.03 versus pirfenidone 1200 mg/d) and with pirfenidone 2400 mg/d (−1.9±6.7 ml/min per 1.73 m^2, P=0.25 versus placebo). Of the initial 77 subjects, 5 initiated hemodialysis during the study: 4 in the placebo group, 0 in the pirfenidone 1200 mg group and 1 in the pirfenidone 2400 mg group (P=0.25). Baseline serum albumin levels were statistically associated with eGFR improvement in the entire cohort (p=0.001) and in the pirfenidone 2400 group (+0.9 [95% CI 0.7 to 1.1], p=0.03).
The study protocol was approved by the institutional review boards of the participating centers and all patients provided written consent. Trial sites were Thomas Jefferson University, Philadelphia, Pa.; the Mayo Clinic, Rochester, Minn.; and the NIH Clinical Center, Bethesda, Md. At the pre-study evaluation, the potential study candidates provided a medical history and underwent a complete physical examination, including clinical laboratory determinations and the measurement of vital signs. Entry criteria included a history of type 1 or type 2 diabetes, eGFR 20-75 ml/min/1.73 m2, microalbuminuria or overt proteinuria, blood pressure <140/90 mm Hg on an a ACEi, ARB or the combination, if tolerated. Exclusion criteria included other causes of kidney disease, history of photosensitivity rash, and liver disease. A stratified block randomization scheme was used to maximize the balance of patients with type 1 and type 2 diabetes assigned to each treatment group, using randomization blocks of size 4.
(§1) Eligible subjects were randomly assigned to receive pirfenidone 1200 mg daily, pirfenidone 2400 mg daily, or placebo for 54 weeks. Subjects received two 400 mg capsules of pirfenidone three times, one capsule of pirfenidone and one capsule of placebo three times daily), or two capsules of placebo three times daily. […] If symptoms persisted, the dose was kept at the lowest tolerable dose (but not less than 50% of original dose) if the subject desired to continue in the protocol.
(§2) The primary endpoint was eGFR change from baseline to end of study. Baseline eGFR was determined from two serum creatinine measurements within 3 weeks prior to starting study drug. End of study eGFR was determined from two serum creatinine measurements at week 52 and week 54, prior to stopping study medication. Serum creatinine was measured by the Jaffe method separately at each clinic site laboratory. eGFR was determined by the 4-variable Modification of Diet in Renal Disease Study equation 37. Secondary endpoints included the change in urine ACR and the change in urine TGF-[…]/urine creatinine.
The pre-specified primary endpoint analysis was the eGFR change, compared between each pirfenidone treatment group with placebo group using the Student t-test. […]

[3] = tested on: subjects with diabetic nephropathy; experiment: Pirfenidone trial: changes in plasma biomarkers of inflammation and fibrosis; format: in vivo, human; conditions: for Change in IFN gamma / Change in Plasma TGF Beta / Change in TNF α / Change in YKL40 / Change in BNP / Change in FGF23 / Change in IL1 / Change in S TNF R1: over 52 weeks; for Change in IFN gamma / Change in Plasma TGF Beta / Change in TNF α / Change in YKL40: mean ± SD; for Change in BNP / Change in FGF23 / Change in IL1 / Change in S TNF R1: median and IQR
Description: (§3) Biomarkers were analyzed in plasma and urine from samples collected at both baseline visits and both end-of-study visits, with the two results averaged. Plasma biomarkers were measured by MesoScale Discovery (MSD) platform at the UCSD Clinical Translational Research Institute (CTRI) facility. The MSD platform uses electrochemiluminescence tags on specific antibodies that emit light when electrochemically stimulated. The specific blood biomarkers measured were interferon-y (IFNy), interleukin 1 (IL-1), tumor necrosis factor (TNF), soluble TNF receptor 1 (S TNF R1), YKL40 (also called chitinase like protein or human cartilage glycoprotein-39), brain natriuretic peptide (BNP), and TGF-beta1. Fibroblast growth factor 23 (FGF23) was measured by a C-terminal ELISA assay (Immutopics, San Clemente, Calif.). Urine biomarkers included urine TGF-beta1 (measured by Quantikine, R&D Biosystems, as previously described 29). Urine albumin was measured by nephelometry and urine creatinine was measured by the Jaffe method.
In exploratory analysis, linear regression was performed to evaluate associations between baseline eGFR as the dependent variable and each biomarker at baseline as the independent variable. Skewed variables were natural log transformed, and each biomarker was evaluated as “per SD greater” to facilitate comparisons of strengths of association. Biomarker change scores were calculated as (end-of-study value—baseline level). Analysis of variance (ANOVA) was used to determine if the change in biomarker levels differed by randomized treatment assignment. It was also whether baseline biomarker levels were associated with eGFR change using multivariable linear regression. These models were adjusted for the other biomarkers and for clinical factors that are well established markers of progressive diabetic nephropathy, including age, sex, race, SBP, DBP, baseline ACR, and baseline eGFR.

[4] = tested on: subjects with diabetic nephropathy; experiment: Pirfenidone trial, secondary outcomes: urine albumin/creatinine ratio and urine TGF-beta; format: in vivo, human
Description: as §2, §3
The pre-specified primary endpoint analysis was the eGFR change, compared between each pirfenidone treatment group with placebo group using the Student t-test. Secondary endpoints (ACR change and urine TGF-beta1 change[…]s were similarly evaluated. When one of the two visits was missing, a single observation was used. Due to missing data the assumption that the data points arose from an identical distribution (equal variance) was put in question. Therefore, in addition to the two-sample t-tests, we also performed permutation tests with 10,000 permutations of the treatment assignments, as well as an analysis of covariance (ANCOVA) 38 with iterated re-weighted least-squares (IWLS) 39 as confirmatory analyses. Data are presented as mean±SD for normally distributed variables, and medians and interquartile ranges for skewed variables.

[5] = tested on: subjects with diabetic nephropathy; experiment: Urine metabolomics in subjects treated with pirfenidone; format: in vivo, human; conditions: second cohort of patients enrolled in a separate trial
Description: Twenty-four hour urine was collected from both control and D-CKD subjects. A composite quantitative urine organic acid estimation was done using the Agilent 5973 […] and Mass spectrometry. Seventy-six different organic acids were looked at per sample and the results were standardized per mmol of creatinine.
Based on this study, the basis for why pirfenidone benefited some patients and not others was unclear. Despite available clinical data and protein biomarker studies there was little understanding on how to dose and prescribe this drug in a future study. Urine metabolomics was performed in subjects enrolled in this study at baseline and at 6 months after enrollment. A panel of metabolites based on a specific ratio added predictive value to the outcome on the drug. […] Similar approaches can be employed with other clinical trials to identify which patients will respond to drug, which patients will not, and identify potential new mechanisms. Additionally, metabolite profiles could predict adverse events in patients that are ongoing or will develop in the future.

[6] = tested on: subjects with diabetic nephropathy; experiment: Pirfenidone trial: adverse events and study non-completion; format: in vivo, human; conditions: for non-completion: Aortic dilation / non-completion: Cancer / non-completion: Dialysis / non-completion: Fatigue / non-completion: Gastrointestinal symptoms / non-completion: Heart failure / non-completion: Rash / non-completion: Urinary tract infection: number of subjects (%)
Description: as §1
An analysis based on logistic regression models was conducted to determine whether this violates the assumption of missing completely at random (MCAR) 40. This included using baseline characteristics to predict dropout and using eGFR values at a particular visit to predict dropout at the next visit. The latter part of the logistic regression was fitted using generalized estimating equations (GEE) 41. All data analyses were conducted using R and STATA version 11.0 (College Station, Tex.)

Cc1ccc(=O)n(-c2ccccc2)c1 [pirfenidone]
share of subjects who tolerated the dose ([1]; 2400 mg/d, FSGS open label study): ⅔ | reduction in the rate of estimated glomerular filtration rate (eGFR) decline ([1]; compared to the rate of decline before pirfenidone): 25% | albuminuria (db/db mice; diabetic db/db mouse): without lowering albuminuria | glomerulosclerosis (db/db mice; oral, after the onset of established diabetic kidney disease): effective in reducing glomerulosclerosis | eGFR Change, with imputation ([2]; 1200 mg): 3.3 ± 8.5 ml/min/1.73 m^2 | eGFR Change ([2]; 1200 mg): 3.3 ± 8.5 ml/min/1.73 m^2 | eGFR Change, with imputation ([2]; 2400 mg): −2.1 ± 6.4 ml/min/1.73 m^2 | eGFR Change ([2]; 2400 mg): −1.9 ± 6.7 ml/min/1.73 m^2 | subjects who initiated hemodialysis during the study ([2]; pirfenidone 1200 mg group): 0 | mean inter-group difference in eGFR change versus placebo ([2]; pirfenidone 1200 mg, baseline to end-of-study): +5.5 ml/min per 1.73 m^2 | difference in eGFR change versus placebo, baseline to month 6 ([2]; pirfenidone 1200 mg, post-hoc two sample t-test): 5.3 ml/min/1.73 m^2 | eGFR change during the course of the study ([2]; pirfenidone 2400 mg/d, one year (54 weeks), mean±SD): −1.9±6.7 ml/min per 1.73 m^2 | mean difference in eGFR change versus placebo ([2]; pirfenidone 2400 mg, baseline to end-of-study): 0.3 ml/min per 1.73 m^2 | Change in IFN gamma ([3]; 1200, n = 14): 0.1 ± 1.9 pg/mL | Change in Plasma TGF Beta ([3]; 1200, n = 14): -2 ± 26 pg/mL | Change in TNF α ([3]; 1200, n = 14): -0.8 ± 2.2 pg/mL | Change in YKL40 ([3]; 1200, n = 14): 6 ± 62 ng/mL | Change in BNP ([3]; 1200, n = 14): −22 (−114, 24) pg/ml | Change in FGF23 ([3]; 1200, n = 14): −3 (−23, 33) RU/ml | Change in IL1 ([3]; 1200, n = 14): 0.0 (−0.3, 0.4) pg/ml | Change in S TNF R1 ([3]; 1200, n = 14): −140 (−497, 148) pg/ml | Change in IFN gamma ([3]; 2400, n = 14): 0.2 ± 2.5 pg/mL | Change in Plasma TGF Beta ([3]; 2400, n = 14): 7 ± 17 pg/mL | Change in TNF α ([3]; 2400, n = 14): -0.7 ± 2.1 pg/mL | Change in YKL40 ([3]; 2400, n = 14): 30 ± 43 ng/mL | Change in BNP ([3]; 2400, n = 14): 45 (−67, 312) pg/ml | Change in FGF23 ([3]; 2400, n = 14): 13 (−6, 63) RU/ml | Change in IL1 ([3]; 2400, n = 14): 0.0 (−0.2, 0.2) pg/ml | Change in S TNF R1 ([3]; 2400, n = 14): 197 (−113, 420) pg/ml | change of inflammatory plasma biomarkers with treatment ([3]; in vivo): none changed significantly | change in urine albumin/creatinine ratio (ACR) from baseline to end of study ([4]; among study groups): no significant differences | albuminuria with treatment ([4]; in vivo): did not decrease | urine TGF-beta levels, increase over 12 months ([4]; pirfenidone 1200 mg group): 0.3 pg/mg | urine TGF-beta levels, decline over 12 months ([4]; pirfenidone 2400 mg group): 0.1 pg/mg | urine citrate with interventional treatment [5]: showed an increase | non-completion: Aortic dilation ([6]; 1200 mg (n = 26)): 1 (4%) | non-completion: Cancer ([6]; 1200 mg (n = 26)): 0 (0%) | non-completion: Dialysis ([6]; 1200 mg (n = 26)): 0 (0%) | non-completion: Fatigue ([6]; 1200 mg (n = 26)): 0 (0%) | non-completion: Gastrointestinal symptoms ([6]; 1200 mg (n = 26)): 3 (13%) | non-completion: Heart failure ([6]; 1200 mg (n = 26)): 1 (4%) | non-completion: Rash ([6]; 1200 mg (n = 26)): 1 (4%) | non-completion: Urinary tract infection ([6]; 1200 mg (n = 26)): 0 (0%) | non-completion: Aortic dilation ([6]; 2400 mg (n = 25)): 0 (0%) | non-completion: Cancer ([6]; 2400 mg (n = 25)): One subject | non-completion: Dialysis ([6]; 2400 mg (n = 25)): 1 (4%) | non-completion: Fatigue ([6]; 2400 mg (n = 25)): 3 (12%) | non-completion: Gastrointestinal symptoms ([6]; 2400 mg (n = 25)): 6 (25%) | non-completion: Heart failure ([6]; 2400 mg (n = 25)): 0 (0%) | non-completion: Rash ([6]; 2400 mg (n = 25)): 1 (4%) | non-completion: Urinary tract infection ([6]; 2400 mg (n = 25)): 1 (4%) | non-completion: Cancer ([6]; 2400 mg (n = 25), listed as Prifenidone): 1 (4%) | incidence of gastrointestinal side effects and fatigue ([6]; pirfenidone groups compared to placebo): appeared to be dose related | Non-Completers, n (%) ([6]; randomized to 1200): 9 (35%) | Non-Completers, n (%) ([6]; randomized to 2400): 11 (44%)
